Results from patent publication US20260070945A1, “MACROCYCLIC IMMUNOMODULATORS” (Bristol-Myers Squibb Company, priority 2022, published 2026).
Where a SMILES comes first, the peptide text is derived from it. Bridges are numbered along the chain shown (N, C = ends). [ ]: non-standard residue; d: D form. The star is where a group is joined. ξ: configuration not given here. Phe(4-COOH) = N[C@@H](Cc1ccc(C(=O)O)cc1)C(=O)O; Bip = N[C@@H](Cc1ccc(-c2ccccc2)cc1)C(=O)O; Phe(3-Me) = Cc1cccc(C[C@H](N)C(=O)O)c1; Val(3-OH) = CC(C)(O)[C@H](N)C(=O)O; aIle = CC[C@@H](C)[C@H](N)C(=O)O; hArg = N=C(N)NCCCC[C@H](N)C(=O)O; hhGln = NC(=O)CCCC[C@H](N)C(=O)O; 4Pal = N[C@@H](Cc1ccncc1)C(=O)O; Cha = N[C@@H](CC1CCCCC1)C(=O)O; Cit = NC(=O)NCCC[C@H](N)C(=O)O; Thr(3ξ) = CC(O)[C@H](N)C(=O)O; 12Ado = NCCCCCCCCCCCC(=O)O; Carboxymethyl = O=C(O)C*; NMeA = CN[C@@H](C)C(=O)O; Orn = NCCC[C@H](N)C(=O)O; Aun = NCCCCCCCCCCC(=O)O; Dab = NCC[C@H](N)C(=O)O; Dap = NC[C@H](N)C(=O)O; AEEA = NCCOCCOCC(=O)O

The molecules below were run against T1, PD-1/PD-L1 interaction (PE-labeled human PD-L1-Ig binding to Jurkat cell line over-expressing human PD-1) (Homo sapiens, UniProt Q15116) (assay: Jurkat-PD-1 Cell Binding High-Content Screening Assay (CBA)). Settings: Jurkat-hPD-1 cells, PE-labeled PD-L1-Ig 20 nM final; read-out: Jurkat HPD1 PDL1 IC50.
T1 construct: expressed in transfected cells; host or cells: Jurkat
T1 sequence (Q15116 25-288): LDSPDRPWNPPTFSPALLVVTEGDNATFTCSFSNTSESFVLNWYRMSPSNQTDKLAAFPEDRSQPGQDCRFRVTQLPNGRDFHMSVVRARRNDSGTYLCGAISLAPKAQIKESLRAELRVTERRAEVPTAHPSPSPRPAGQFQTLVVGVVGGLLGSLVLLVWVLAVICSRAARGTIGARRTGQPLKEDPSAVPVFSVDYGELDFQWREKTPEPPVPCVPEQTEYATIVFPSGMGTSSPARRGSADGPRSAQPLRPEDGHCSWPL
How it was run: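 Binding of 20 nM (final) PE-tagged PD-L1-Ig to compound-pretreated Jurkat-hPD-1 cells was measured by high-content imaging after 1 h. Pretreatment ran 2 h at 37 °C in DMEM with 10% fetal calf serum.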

IC50 | SMILES
25.9 nM | CC(C)C[C@@H]1NC(=O)[C@H](Cc2c[nH]c3ccccc23)NC(=O)[C@H](CC(=O)O)NC(=O)[C@H](Cc2ccc(OCC(=O)O)cc2)NC(=O)[C@H](CCCCNC(=N)N)NC(=O)CSC[C@@H](C(=O)N[C@@H](CCCN)C(=O)NCCOCCOCC(=O)NCCCCCCCCCCC(=O)O)NC(=O)[C@H](CCCNC(N)=O)NC(=O)[C@H](C(C)C)NC(=O)[C@H](CC2CCCCC2)NC(=O)[C@H](CN)NC(=O)[C@@H](CC(C)C)NC(=O)[C@H](C)N(C)C(=O)[C@H](C(C)C)NC(=O)[C@H](Cc2ccc(-c3ccccc3)cc2)NC1=O [Example 2177] ({CH2CO}-[hArg]Y(Carboxymethyl)DWL[Bip]V[NMeA][dL][Dap][Cha]V[Cit]C[Orn][AEEA][Aun]-OH; thioether N-14)
11.8 nM | CC(C)C[C@@H]1NC(=O)[C@H](Cc2c[nH]c3ccccc23)NC(=O)[C@H](CC(=O)O)NC(=O)[C@H](Cc2ccc(C(=O)O)cc2)NC(=O)[C@H](Cc2ccc(OCC(=O)O)cc2)NC(=O)CSC[C@@H](C(=O)N[C@@H](CCCCN)C(=O)NCCOCCOCC(=O)NCCCCCCCCCCC(=O)O)NC(=O)[C@H](CO)NC(=O)[C@H](C(C)C)NC(=O)[C@H](CC2CCCCC2)NC(=O)[C@H](CCN)NC(=O)[C@@H](CC(C)C)NC(=O)[C@H](C)N(C)C(=O)[C@H](C(C)C)NC(=O)[C@H](Cc2ccc(-c3ccccc3)cc2)NC1=O [Example 2096] ({CH2CO}-Y(Carboxymethyl)[Phe(4-COOH)]DWL[Bip]V[NMeA][dL][Dab][Cha]VSCK[AEEA][Aun]-OH; thioether N-14)
11.2 nM | CC(C)C[C@@H]1NC(=O)[C@H](Cc2c[nH]c3ccccc23)NC(=O)[C@H](CC(=O)O)NC(=O)[C@H](Cc2ccc(OCC(=O)O)cc2)NC(=O)[C@H](Cc2ccc(OCC(=O)O)cc2)NC(=O)CSC[C@@H](C(=O)N[C@@H](CCCN)C(=O)NCCOCCOCC(=O)NCCCCCCCCCCC(=O)O)NC(=O)[C@H](CCCCC(N)=O)NC(=O)[C@H](C(C)C)NC(=O)[C@H](CC2CCCCC2)NC(=O)[C@H](CCN)NC(=O)[C@@H](CC(C)C)NC(=O)[C@H](C)N(C)C(=O)[C@H](C(C)C)NC(=O)[C@H](Cc2ccc(-c3ccccc3)cc2)NC1=O [Example 2129] ({CH2CO}-Y(Carboxymethyl)Y(Carboxymethyl)DWL[Bip]V[NMeA][dL][Dab][Cha]V[hhGln]C[Orn][AEEA][Aun]-OH; thioether N-14)
29.6 nM | Cc1cccc(C[C@@H]2NC(=O)[C@H](CC(=O)O)NC(=O)[C@H](Cc3ccc(OCC(=O)O)cc3)NC(=O)[C@H](CCCNC(=N)N)NC(=O)CSC[C@@H](C(=O)N[C@H](CCC(=O)O)C(=O)NCCCCCCCCCCC(=O)O)NC(=O)[C@H](C(C)O)NC(=O)[C@H](C(C)C)NC(=O)[C@H](CC3CCCCC3)NC(=O)[C@H](CCN)NC(=O)[C@@H](CC(C)C)NC(=O)[C@H](C)N(C)C(=O)[C@H](CCCNC(N)=O)NC(=O)[C@H](Cc3ccc(-c4ccccc4)cc3)NC(=O)[C@H](C(C)C)NC2=O)c1 (stereo partly drawn) [Example 2392] ({CH2CO}-RY(Carboxymethyl)D[Phe(3-Me)]V[Bip][Cit][NMeA][dL][Dab][Cha]V[Thr(3ξ)]C[dE][Aun]-OH; thioether N-14)
43.9 nM | CC[C@@H](C)[C@@H]1NC(=O)[C@H](Cc2ccc(-c3ccccc3)cc2)NC(=O)[C@H](C(C)C)NC(=O)[C@H](Cc2c[nH]c3ccccc23)NC(=O)[C@H](CC(=O)O)NC(=O)[C@H](Cc2ccc(O)cc2)NC(=O)[C@H](Cc2ccncc2)NC(=O)CSC[C@@H](C(=O)N[C@@H](CCN)C(=O)NCCCCCCCCCCC(=O)O)NC(=O)[C@H](C(C)O)NC(=O)[C@H](C(C)C)NC(=O)[C@H](CC2CCCCC2)NC(=O)[C@H](CCN)NC(=O)[C@@H](CC(C)C)NC(=O)[C@H](C)N(C)C1=O (stereo partly drawn) [Example 2036] ({CH2CO}-[4Pal]YDWV[Bip][aIle][NMeA][dL][Dab][Cha]V[Thr(3ξ)]C[Dab][Aun]-OH; thioether N-14)
13.4 nM | CC(C)C[C@@H]1NC(=O)[C@H](Cc2c[nH]c3ccccc23)NC(=O)[C@H](CC(=O)O)NC(=O)[C@H](Cc2ccc(C(=O)O)cc2)NC(=O)[C@H](Cc2ccc(OCC(=O)O)cc2)NC(=O)CSC[C@@H](C(=O)N[C@H](CC(N)=O)C(=O)NCCCCCCCCCCC(=O)O)NC(=O)[C@H](CO)NC(=O)[C@H](C(C)C)NC(=O)[C@H](CC2CCCCC2)NC(=O)[C@H](CCN)NC(=O)[C@@H](CC(C)C)NC(=O)[C@H](C)N(C)C(=O)[C@H](C(C)C)NC(=O)[C@H](Cc2ccc(-c3ccccc3)cc2)NC1=O [Example 2234] ({CH2CO}-Y(Carboxymethyl)[Phe(4-COOH)]DWL[Bip]V[NMeA][dL][Dab][Cha]VSC[dN][Aun]-OH; thioether N-14)
7.2 nM | Cc1cccc(C[C@@H]2NC(=O)[C@H](CC(=O)O)NC(=O)[C@H](Cc3ccc(C(=O)O)cc3)NC(=O)[C@H](Cc3ccncc3)NC(=O)CSC[C@@H](C(=O)N[C@@H](CCN)C(=O)NCCCCCCCCCCC(=O)O)NC(=O)[C@H](CO)NC(=O)[C@H](C(C)(C)O)NC(=O)[C@H](CC3CCCCC3)NC(=O)[C@H](CCN)NC(=O)[C@@H](CC(C)C)NC(=O)[C@H](C)N(C)C(=O)[C@H](Cc3ccc(OCC(=O)O)cc3)NC(=O)[C@H](Cc3ccc(-c4ccccc4)cc3)NC(=O)[C@H](Cc3ccc(OCC(=O)O)cc3)NC2=O)c1 [Example 1282] ({CH2CO}-[4Pal][Phe(4-COOH)]D[Phe(3-Me)]Y(Carboxymethyl)[Bip]Y(Carboxymethyl)[NMeA][dL][Dab][Cha][Val(3-OH)]SC[Dab][Aun]-OH; thioether N-14)
193 nM | CC(C)C[C@H]1NC(=O)[C@H](C)N(C)C(=O)[C@H](Cc2ccc(OCC(=O)O)cc2)NC(=O)[C@H](Cc2ccc(-c3ccccc3)cc2)NC(=O)[C@H](Cc2ccc(OCC(=O)O)cc2)NC(=O)[C@H](Cc2c[nH]c3ccccc23)NC(=O)[C@H](CC(=O)O)NC(=O)[C@H](Cc2ccc(OCC(=O)O)cc2)NC(=O)[C@H]([C@@H](C)O)NC(=O)CSC[C@@H](C(=O)N[C@@H](CCN)C(=O)NCCOCCOCC(=O)NCCCCCCCCCCC(=O)O)NC(=O)[C@H](CCCN)NC(=O)[C@H](C(C)C)NC(=O)[C@H](CC2CCCCC2)NC(=O)[C@H](CC(N)=O)NC1=O [Example 1384] ({CH2CO}-TY(Carboxymethyl)DWY(Carboxymethyl)[Bip]Y(Carboxymethyl)[NMeA][dL]N[Cha]V[Orn]C[Dab][AEEA][Aun]-OH; thioether N-14)
11.9 nM | CC(C)C[C@@H]1NC(=O)[C@H](Cc2c[nH]c3ccccc23)NC(=O)[C@H](CC(=O)O)NC(=O)[C@H](Cc2ccncc2)NC(=O)[C@H](Cc2ccc(OCC(=O)O)cc2)NC(=O)CSC[C@@H](C(=O)NCCOCCOCC(=O)N[C@@H](CN)C(=O)NCCCCCCCCCCC(=O)O)NC(=O)[C@H](CCCNC(N)=O)NC(=O)[C@H](C(C)C)NC(=O)[C@H](CC2CCCCC2)NC(=O)[C@H](CCN)NC(=O)[C@@H](CC(C)C)NC(=O)[C@H](C)N(C)C(=O)[C@H](C(C)C)NC(=O)[C@H](Cc2ccc(-c3ccccc3)cc2)NC1=O [Example 2164] ({CH2CO}-Y(Carboxymethyl)[4Pal]DWL[Bip]V[NMeA][dL][Dab][Cha]V[Cit]C[AEEA][Dap][Aun]-OH; thioether N-14)

Same assay, conditions: PE-labeled PD-L1-Ig 20 nM final, Jurkat-hPD-1 cells; read-out: Jurkat HPD1 PDL1 IC50

IC50 | SMILES
12.2 nM | Cc1cccc(C[C@@H]2NC(=O)[C@H](CC(=O)O)NC(=O)[C@H](Cc3ccc(OCC(=O)O)cc3)NC(=O)[C@H]([C@@H](C)O)NC(=O)CSC[C@@H](C(=O)N[C@@H](CCN)C(=O)NCCCCCCCCCCCC(=O)NCCCCCCCCCCC(=O)O)NC(=O)[C@H](CCC(=O)O)NC(=O)[C@H](C(C)C)NC(=O)[C@H](CC3CCCCC3)NC(=O)[C@H](CCN)NC(=O)[C@@H](CC(C)C)NC(=O)[C@H](C)N(C)C(=O)[C@H](Cc3ccc(OCC(=O)O)cc3)NC(=O)[C@H](Cc3ccc(-c4ccccc4)cc3)NC(=O)[C@H](Cc3ccc(OCC(=O)O)cc3)NC2=O)c1 [Example 2679] ({CH2CO}-TY(Carboxymethyl)D[Phe(3-Me)]Y(Carboxymethyl)[Bip]Y(Carboxymethyl)[NMeA][dL][Dab][Cha]VEC[Dab][12Ado][Aun]-OH; thioether N-14)
12.4 nM | Cc1cccc(C[C@@H]2NC(=O)[C@H](CC(=O)O)NC(=O)[C@H](Cc3ccc(C(=O)O)cc3)NC(=O)[C@H](C(C)O)NC(=O)CSC[C@@H](C(=O)N[C@@H](CCN)C(=O)NCCOCCOCC(=O)NCCOCCOCC(=O)NCCCCCCCCCCC(=O)O)NC(=O)[C@H](CCC(=O)O)NC(=O)[C@H](C(C)C)NC(=O)[C@H](CC3CCCCC3)NC(=O)[C@H](CCN)NC(=O)[C@@H](CC(C)C)NC(=O)[C@H](C)N(C)C(=O)[C@H](Cc3ccc(C(=O)O)cc3)NC(=O)[C@H](Cc3ccc(-c4ccccc4)cc3)NC(=O)[C@H](Cc3ccc(C(=O)O)cc3)NC2=O)c1 (stereo partly drawn) [Example 2538] ({CH2CO}-[Thr(3ξ)][Phe(4-COOH)]D[Phe(3-Me)][Phe(4-COOH)][Bip][Phe(4-COOH)][NMeA][dL][Dab][Cha]VEC[Dab][AEEA][AEEA][Aun]-OH; thioether N-14)
25.3 nM | Cc1cccc(C[C@@H]2NC(=O)[C@H](CC(=O)O)NC(=O)[C@H](Cc3ccc(OCC(=O)O)cc3)NC(=O)[C@H](C(C)O)NC(=O)CSC[C@@H](C(=O)N[C@@H](CCN)C(=O)NCCOCCOCC(=O)NCCCCCCCCCCC(=O)O)NC(=O)[C@H](CO)NC(=O)[C@H](C(C)(C)O)NC(=O)[C@H](CC3CCCCC3)NC(=O)[C@H](CCN)NC(=O)[C@@H](CC(C)C)NC(=O)[C@H](C)N(C)C(=O)[C@H](Cc3ccc(OCC(=O)O)cc3)NC(=O)[C@H](Cc3ccc(-c4ccccc4)cc3)NC(=O)[C@H](Cc3ccc(OCC(=O)O)cc3)NC2=O)c1 (stereo partly drawn) [Example 2469] ({CH2CO}-[Thr(3ξ)]Y(Carboxymethyl)D[Phe(3-Me)]Y(Carboxymethyl)[Bip]Y(Carboxymethyl)[NMeA][dL][Dab][Cha][Val(3-OH)]SC[Dab][AEEA][Aun]-OH; thioether N-14)
